Results taken from patent US7063842B2, “Compounds and methods for inhibiting the interaction between α-catenin and β-catenin” (McGill University, priority 1997, dated 2006).
Positions of bridges follow the written chain, without caps; N, C: chain ends.

Key:
[1] = test system: Normal human breast A1N4 cells; test: Disruption of cell adhesion: microinjection of peptide/DAPI mixture into cells, morphology noted at hourly intervals; assay type: cell-based; details: 0.2 pL peptide/DAPI mixture injected, final intracellular concentration of peptide 0.5 mg/ml, after 4 hours
Experimental: Three peptides (N-Ac-CKHAVVNC-NH2, N-Ac-CKHGWNC-NH2, and H-KHAVVN-OH; SEQ ID NOS: 5, 51 and 8 respectively) were tested for their ability to disrupt cell adhesion. Normal human breast A1N4 cells were grown on gridded glass coverslips to approximately 30% confluence. Peptides were dissolved in distilled water at a concentration of […]. Each of the three peptide solutions was mixed 1:1 with a solution containing the fluorescent marker DAPI (Molecular Probes Inc., Eugene, Oreg.) dissolved in water at a concentration of 40 μg/ml. All of the mixtures were centrifuged at 10,000×g for 5 minutes immediately before use in the experiments. An aliquot ([…]) of each peptide/DAPI mixture was taken up in an Eppendorff microinjection pipette. Microinjection was performed using an Eppendorf microinjector and micromanipulator coupled to an IM35 inverted Zeiss microscope with phase contrast and Hoffman optics. Cells to be injected were located and their position on the grid noted. For microinjection, the pipette was brought close to the cell layer and the micromanipulator programmed to return to the same plane. Cells were injected with 0.2 pL of peptide/DAPI mixture. This corresponds to approximately 1/100 of the cell volume and results in a final intracellular concentration of peptide of 0.5 mg/ml. […] After 4 hours, a difference in the morphology of the cells injected with the various peptides was observed.

[2] = test system: α-catenin/β-catenin interactions; test: Immunoprecipitation from adult mouse brain extracts, Western blot probed with anti-α-catenin / anti-β-catenin antibodies; assay type: binding; details: adult mouse brain homogenate incubated 3 hours at 4° C. with peptide at 1 mg/ml
Experimental: As noted above, modulating agents are capable of disrupting an interaction between α-catenin and β-catenin. This ability may generally be evaluated using any suitable assay known to those of ordinary skill in the art. For example, an immunoprecipitation as described herein may be employed. Within such an assay, disruption of the interaction is measured by assessing the ability of an antibody directed against β-catenin to immunoprecipitate α-catenin in the presence and absence of the modulating agent. For example, tissue such as brain may be homogenized in the presence and absence of modulating agent. The ability of an antibody directed against β-catenin to immunoprecipitate α-catenin from the homogenate is then assessed by probing a Western blot of proteins immunoprecipitated from the tissue homogenate by anti-β-catenin antibody with an anti-α-catenin antibody. […]
These peptides, as well as two control peptides (H-CKHGWNC-OH, SEQ ID NO:6, and H-CKHGWNC-OH, SEQ ID NO:51) were analyzed for their ability to disrupt α-catenin/β-catenin interactions, as judged by standard immunoprecipitation methods. […] Finally, the membrane was washed 3 times with TTBS, and the immunoreactive proteins were detected using an enhanced chemiluminescence kit (ECL; Amersham Life Sciences Inc., Oakville, Ontario) and autoradiographic film (Fuji, Minami-Ashigara, Japan). […]

Ac-CKHGWNC-NH2 (cysteine pairing not given here) [N-Ac-CKHGWNC-NH2 (SEQ ID NO:51), reference compound]
morphology of the injected cells [1]: indistinguishable from surrounding uninjected cells

H-CKHAVVNC-OH (cysteine pairing not given here) [H-CKHAVVNC-OH (SEQ ID NO:4)]
ability to disrupt α-catenin/β-catenin interactions, as judged by immunoprecipitation [2]: capable of disrupting the interaction between α-catenin and β-catenin

H-Cys-Lys-His-Ala-Val-Val-Asn-Cys-OH (H-CKHAVVNC-OH; cysteine pairing not given here) [H-CKHAVVNC-OH (SEQ ID NO:5)]
ability to disrupt α-catenin/β-catenin interactions, as judged by immunoprecipitation [2]: capable of disrupting the interaction between α-catenin and β-catenin

H-KHAVVN-OH [H-KHAVVN-OH (SEQ ID NO:8)]
morphology of the injected cells [1]: had become rounded, and they were detached from their neighbors

N-Ac-CKHAVVNC-NH2 (disulfide 1-8 (inferred)) [N-Ac-CKHAVVNC-NH2 (SEQ ID NO:5)]
morphology of the injected cells [1]: indistinguishable from surrounding uninjected cells
